Assay results: patent USRE47689E1, “Compounds for treating spinal muscular atrophy” (PTC Therapeutics, Inc., priority 2011, dated 2019)

Columns and labels:
Smn protein [1] = assay: Smn protein in tissues of neonatal Δ7 SMA mice; type: in vivo, mouse; conditions: neonatal SMA Δ7 homozygous knockout mice; brain, spinal cord, muscle; IP QD from PND 3 to day 9
Protocol: (§1) Protocol. The tissue samples in Safe-Lock tubes are weighed and the volume of RIPA buffer containing the protease inhibitor cocktail is added based on the weight to volume ratios for each type of tissue: Brain (50 mg/mL), Muscle (50 mg/mL) and Spinal Cord (25 mg/mL).
(§2) Tissues are homogenized using the TissueLyzer by bead milling. 5 mm stainless steel beads are added to the sample and shaken vigorously for 5 minutes at 30 Hz in the TissueLyzer. The samples are then centrifuged for 20 minutes at 14,000×g in a microcentrifuge and the homogenates transferred to the PCR plate. The homogenates are diluted in RIPA buffer to approximately 1 mg/mL for HTRF and approximately 0.5 mg/mL for total protein measurement using the BCA protein assay. […] Fluorescence for each well of the plate at 665 nm and 620 nm is measured on an EnVision multilabel plate reader (Perkin-Elmer). The total protein in the tissue homogenate is measured using the BCA assay according to the manufacturer's protocol.
(§3) The normalized fluorescence signal is calculated for each sample, Blank and vehicle control well by dividing the signal at 665 nm by the signal at 620 nm. Normalizing the signal accounts for possible fluorescence quenching due to the matrix effect of the tissue homogenate. […] The ΔF value for each tissue sample well is divided by the total protein quantity (determined using the BCA assay) for that tissue sample. […]

Smn protein [2] = assay: Smn protein levels in tissues of Δ7 SMA mice of the survival study; type: in vivo, mouse; conditions: neonatal Δ7 SMA mice; brain and muscle; treated until P47-55 (Compound 35), until P68 (Compound 626)
Protocol: as §1
as §2, with “plate.” for “plate. The homogenates are diluted in RIPA buffer to approximately 1 mg/mL for HTRF and approximately 0.5 mg/mL for total protein measurement using the BCA protein assay.”
as §3
Protocol. […] The number of surviving mice in each group is recorded every day and plotted as a percent of total number of mice. […]

Smn protein [3] = assay: Smn protein assay in human motor neurons; type: cell-based; conditions: human motor neurons derived from SMA iPS cells; increasing concentrations; 72 hours; confocal fluorescence microscopy
Protocol: Smn immunofluorescent confocal microscopy is used to quantify the level of Smn protein in human motor neurons treated with test compounds.
Protocol. Human motor neurons derived from SMA iPS cells (Ebert et al., Nature, 2009, […]; and, Rubin et al., BMC Biology, 2011, 9:42) are treated with test compound at various concentrations for 72 hours. The level of Smn protein in the cell nucleus is quantified using Smn immunostaining and confocal fluorescence microscopy essentially as described in Makhortova et al., Nature Chemical Biology, 2011, 7:544. The level of Smn protein in compound-treated samples is normalized to that in vehicle-treated samples and plotted as a function of the compound concentration.

[4] = system: SMA Δ7 homozygous knockout mice; assay: Survival of neonatal Δ7 SMA mice; type: in vivo, mouse; conditions: IP QD from PND 3, then orally BID until study end, compared to vehicle
Protocol: The change in the number of surviving mice over time is used to determine whether treatment with a test compound improves survival.
Protocol. SMA Δ7 homozygous knockout mice are dosed intraperitoneally (IP) with test compound or vehicle (100% DMSO) once per day (QD) from postnatal day (PND) 3 until the dose regimen is switched to an oral dose twice per day (BID) in 0.5% hydroxypropylmethyl cellulose (HPMC) with 0.1% Tween-80 at a dose 3.16-fold higher than the dose used for IP. The number of surviving mice in each group is recorded every day and plotted as a percent of total number of mice. Tissues of SMA Δ7 and age-matched heterozygous mice are collected for the measurement of Smn protein levels and processed as detailed in Example 10. The total protein normalized Smn protein levels measured in the tissues are plotted as a percent of those in the age-matched heterozygous mice tissues, with the heterozygous levels represented as 100 percent. The level of Smn protein in the test compound treated mice tissue relative to that in heterozygous mice tissue is indicated as a percent value above each bar in the graph.

Compound | total protein normalized Smn level (Smn protein [1]) | Smn protein expression in tissues relative to vehicle treated and age-matched heterozygous mice (Smn protein [2]) | Smn protein in the nucleus (Smn protein [3]) | survival [4]
CC(C)NCCc1ccc2cc(-c3nc4c(Cl)cccc4s3)c(=O)oc2c1 [Cpd 35, 3-(4-chloro-1,3-benzothiazol-2-yl)-7-[2-(propan-2-ylamino)ethyl]-2H-chromen-2-one] | dose dependently increased | increased Smn protein expression | progressively more Smn protein in the nucleus | improved compared to vehicle treated mice
CCN1CCN(c2ccc3cc(-c4cn5cc(C)nc(C)c5n4)c(=O)oc3c2)C[C@@H]1C [Cpd 626, 3-(6,8-dimethylimidazo[1,2-a]pyrazin-2-yl)-7-[(3S)-4-ethyl-3-methylpiperazin-1-yl]-2H-chromen-2-one] | dose dependently increased | increased Smn protein expression | progressively more Smn protein in the nucleus | improved compared to vehicle treated mice
